Test results from patent publication US9167821B2 (priority 2009, dated 2015).

Columns and labels:
Phytophthora infestans = assay: whole plant or invertebrate; assay type: in vivo; conditions: for efficacy: tomato plants, protective spray, 10 ppm active ingredient, evaluation 3 days after inoculation, 0% = control, 100% = no infection; for pest or weed control at 10 ppm: Phytophthora infestans, in Solanum lycopersicum, 72 h, read-out: efficacy
Plasmopara viticola = assay: Plasmopara test (grapevine)/protective; assay type: in vivo; conditions: grapevine plants, protective spray, 10 ppm active ingredient, evaluation 6 days after inoculation, 0% = control, 100% = no infection; for pest or weed control at 10 ppm: Plasmopara viticola, 144 h, read-out: efficacy
Method: Plasmopara Test (Grapevine)/Protective
To prepare an appropriate active ingredient preparation, 1 part by weight of active ingredient is mixed with the stated amounts of solvent and emulsifier, and the concentrate is diluted with water to the desired concentration.
To test for protective efficacy, young plants are sprayed with the active ingredient preparation at the stated application rate. After the spray coating has dried on, the plants are inoculated with an aqueous spore suspension of Plasmopara viticola and then remain in an incubation cabinet at about 20° C. and 100% relative atmospheric humidity for 1 day. The plants are then placed in a greenhouse at approx. 21° C. and approx. 90% air humidity for 4 days. The plants are then moistened and placed in an incubation cabinet for 1 day.
Evaluation follows 6 days after the inoculation.

[1] = for logp [b]: pH 2.7; for logp [a]: pH 2.3; for logp [c]: pH 7.8
Source text: (§1) The determination is effected in the acidic range at pH 2.3 using 0.1% aqueous phosphoric acid and acetonitrile as eluents; linear gradient from 10% acetonitrile to 95% acetonitrile. • ^[b] The LC-MS determination in the acidic range is effected at pH 2.7 using 0.1% aqueous formic acid and acetonitrile (contains 0.1% formic acid) as eluents; linear gradient from 10% acetonitrile to 95% acetonitrile. • ^[c] The LC-MS determination in the neutral range is effected at pH 7.8 using 0.001 molar aqueous ammonium hydrogencarbonate solution and acetonitrile as eluents; linear gradient from 10% acetonitrile to 95% acetonitrile.
(§2) The calibration is effected with unbranched alkan-2-ones (having 3 to 16 carbon atoms) with known log P values (determination of the log P values using the retention times by linear interpolation between two successive alkanones).

Source text for physchem: as §1, §2

Row | Structure (SMILES) | efficacy (Phytophthora infestans) [%] | efficacy (Plasmopara viticola) [%] | logp [b] [1] | logp [a] [1] | logp [c] [1] | other results
1 | CS(=O)(=O)Nc1ccc(C2CC(c3csc(C4CCN(C(=O)Cn5nc(C(F)F)cc5C(F)F)CC4)n3)=NO2)cc1 (racemic) [I-40] | 95 | 91 | 2.41^[b] |  |  | 
2 | C#CCOc1ccccc1C1CC(c2csc(C3CCN(C(=O)Cn4nc(C(F)F)cc4C(F)F)CC3)n2)=NO1 (racemic) [I-39] | 99 | 99 |  | 3.28^[a] | 3.23^[c]; | 
3 | O=C(Cn1nc(C(F)F)cc1C(F)F)N1CCC(c2nc(C3=NOC(c4cccc(O)c4)C3)cs2)CC1 (racemic) [I-42] | 94 | 97 |  | 2.43^[a] | 2.45^[c]; | 
4 | C#CCOc1ccc(C2CC(c3csc(C4CCN(C(=O)Cn5nc(C(F)F)cc5C(F)F)CC4)n3)=NO2)cc1 (racemic) [I-22] | 98 | 97 |  | 3.14^[a]; | 3.08^[c] | 
5 | O=C(Cn1nc(C(F)F)cc1C(F)F)N1CCC(c2nc(-c3cc(-c4ccccc4)on3)cs2)CC1 [I-3] | 100 | 100 | 3.66^[b] |  |  | 
6 | CC(=O)c1cccc(C2CC(c3csc(C4CCN(C(=O)Cn5nc(C(F)F)cc5C(F)F)CC4)n3)=NO2)c1 (racemic) [I-8] | 97 | 99 | 2.78^[b] |  |  | 
7 | C#CCOc1cccc(C2CC(c3csc(C4CCN(C(=O)Cn5nc(C(F)F)cc5C(F)F)CC4)n3)=NO2)c1 (racemic) [I-21] | 98 | 100 |  | 3.24^[a] | 3.16^[c]; | 
8 | CCC#CCOc1ccccc1C1CC(c2csc(C3CCN(C(=O)Cn4nc(C(F)F)cc4C(F)F)CC3)n2)=NO1 (racemic) [I-25] | 95 | 74 | 3.91^[b] |  |  | 
9 | O=C(Cn1nc(C(F)F)cc1C(F)F)N1CCC(c2nc(C3=NOC(c4c(F)cccc4F)C3)cs2)CC1 (racemic) [I-2] | 99 | 100 | 3.14^[b] |  |  | 
10 | O=Cc1cccc(C2CC(c3csc(C4CCN(C(=O)Cn5nc(C(F)F)cc5C(F)F)CC4)n3)=NO2)c1 (racemic) [I-23] | 97 | 99 | 2.78^[b] |  |  | 
11 | CC#CCOc1cccc(C2CC(c3csc(C4CCN(C(=O)Cn5nc(C(F)F)cc5C(F)F)CC4)n3)=NO2)c1 (racemic) [I-15] | 95 | 93 |  | 3.29^[a] | 3.33^[c]; | 
12 | C=CCOc1ccccc1C1CC(c2csc(C3CCN(C(=O)Cn4nc(C(F)F)cc4C(F)F)CC3)n2)=NO1 (centres unmarked) [I-14, 1-[4-(4-{5-[2-(Allyloxy)phenyl]-4,5-dihydro-1,2-oxazol-3-yl}-1,3-thiazol-2-yl)piperidin-1-yl]-2-[3,5-bis(difluoromethyl)-1H-pyrazol-1-yl]ethanone] |  |  |  |  |  | pest or weed control at 10 ppm (Phytophthora infestans): 98%; chromatographic logP (physchem; pH 2.7, logp [b]): 3.63; chromatographic logP (physchem; pH 7.8, logp [c]): 3.65; pest or weed control at 10 ppm (Plasmopara viticola): 100%
13 | O=C(Cn1nc(C(F)F)cc1C(F)F)N1CCC(F)(c2nc(C3=NOC(c4ccccc4)C3)cs2)CC1 (centres unmarked) [I-5, 2-[3,5-bis(difluoromethyl)-1H-pyrazol-1-yl]-1-{4-fluoro-4-[4-(5-phenyl-4,5-dihydro-1,2-oxazol-3-yl)-1,3-thiazol-2-yl]piperidin-1-yl}ethanone] |  |  |  |  |  | pest or weed control at 10 ppm (Phytophthora infestans): 93%; chromatographic logP (physchem; pH 2.7, log P (HCOOH)): 3.41; chromatographic logP (physchem; pH 2.7, logp [b]): 3.41; pest or weed control at 10 ppm (Plasmopara viticola): 97%
14 | O=C(Cn1nc(C(F)F)cc1C(F)F)N1CCC(c2nc(C3=NOC(c4ccccc4O)C3)cs2)CC1 (centres unmarked) [I-9, 2-[3,5-Bis(difluoromethyl)-1H-pyrazol-1-yl]-1-(4-{4-[5-(2-hydroxyphenyl)-4,5-dihydro-1,2-oxazol-3-yl]-1,3-thiazol-2-yl}piperidin-1-yl)ethanone] |  |  |  |  |  | pest or weed control at 10 ppm (Phytophthora infestans): 96%; chromatographic logP (physchem; pH 2.3): 2.58; chromatographic logP (physchem; pH 7.8, logp [c]): 2.6; pest or weed control at 10 ppm (Plasmopara viticola): 99%
